# Data published in article PMC11662161 (Neuro-Oncology Advances, 2024).
# “And” between values parts separate entries of the source, which are not always exact repeats. Identical values can stand only once. Like-named read-outs stand apart in the source and are kept apart here.
# Experiments:
# [1] = system: patients with recurrent HGG; test: Phase II trial NCT01967810: neurocognitive function testing (HVLT-R, TMT A/B, COWA; reliable change index); type: in vivo, human; conditions: for neurocognitive function stable or improved (RCI), across the battery of tests: end of treatment visit
# Description: The end of treatment assessment was only performed if no neurocognitive assessment was done within 30 (± 3) days. Information regarding the patient’s demographic background was collected. Neurocognitive test administrators were trained and provided with a manual to ensure standardized test administration. Neurocognitive test results were evaluated and read centrally. Three domains of neurocognitive function were measured as exploratory endpoints in this study: memory, visuomotor scanning speed (eg, complex visual scanning with a motor component), and executive function (eg, mental flexibility). The neurocognitive battery included the following tests: Hopkins Verbal Learning Tests—Revised (HVLT-R Total Recall, Delayed Recall, Delayed Recognition), Trail Making Test Part A and Part B[18] (TMBTA, TMBTB), and Controlled Oral Word Association (COWA).[19] […]
# [2] = system: patients with recurrent HGG; test: Phase II trial NCT01967810: safety and tolerability (adverse events, NCI CTCAE v4.0; treatment discontinuation)
# Description: Subsequently, a total of 69 patients were enrolled at 600 mg/m^2 as a starting dose. Dose reductions or delays were allowed if toxicity was observed. Patients were monitored for a minimum of 1 h after the completion of each infusion.
# Dose reductions were mandatory for all patients who experienced any (life-threatening) Grade 4 toxicity, and for selected Grade 3 toxicities, such as Grade 3 pneumonitis, Grade 3 peripheral neuropathy or CNS toxicity, or Grade 3 cardiac adverse events (AEs).
# Evaluation of safety included the analysis of AEs and the analysis of laboratory and vital signs data using the safety population. Verbatim descriptions of AEs were mapped according to the Medical Dictionary for Regulatory Activities (MedDRA) v17.0 or later thesaurus terms and graded according to the NCI CTCAE v4.0. […] Laboratory data was analyzed with shift tables and summaries of change from baseline to maximum post-treatment value based on local lab normal ranges. Change from baseline in vital signs were summarized. Neurocognitive function test data was analyzed by descriptive statistics (mean, SD and median) and change in neurocognitive function from baseline to each follow-up time point was categorized as improved, stable, or declined based on the reliable change index (RCI) for each test.
# [3] = system: brain metastases from breast tumors and other advanced solid tumors; conditions: doses ≥ 420 mg/m^2, cited from earlier work
# Text: (§1) The overall safety profile was favorable and consistent with the known side effect profile of unconjugated paclitaxel.
# [4] = system: recurrent glioma tumors; conditions: following a single intravenous infusion; cited from earlier work
# Text: as §1
# [5] = system: recurrent high-grade glioma (HGG); conditions: ref Dmello et al., submitted to Neuro-Oncology Advances, cited from earlier work
# Text: Variable response to paclitaxel between patients is a well-known phenomenon for several cancers, with ~50% of patients being susceptible to this drug as a monotherapy. We recently reported endoplasmic reticulum translocon complex protein SSR3 as a predictive biomarker for glioma and breast cancer susceptibility to this drug.[22] In a companion manuscript (Dmello et al., submitted to Neuro-Oncology Advances), we report an analysis of available tumor samples from this phase II trial (NCT01967810), where we evaluated the correlation with baseline SSR3 expression with OS on this cohort. This study ...
# [6] = system: recurrent high-grade glioma (HGG); test: Phase II trial NCT01967810: efficacy (RANO response, PFS, OS); type: in vivo, human; conditions: for duration (of response) rate: identical at 3, 6 and 12 months
# Text: The protocol was reviewed and approved by the institutional review board of each participating center. All patients gave written informed consent for trial participation. According to 2007 WHO classification used in this study, HGG included grade 3 AGs such as anaplastic astrocytomas (AAs), anaplastic oligodendrogliomas (AOs), and anaplastic oligoastrocytomas (AOAs), as well as grade 4 GBM.[16] […] Additionally, a Karnofsky Performance Scale (KPS) score ≥ 80, neurologic stability with patients receiving stable doses of corticosteroids and anticonvulsants, and normal hepatic, renal, and hematologic function with ≥ 3 months of expected survival were requirements for inclusion. In patients with gliomas refractory to bevacizumab, radiological confirmation of tumor progression during bevacizumab therapy was necessary.
# Gadolinium-enhanced magnetic resonance imaging of the brain was used to evaluate disease extent beginning at baseline and continued every two treatment cycles (ie, every 6 ± 2 weeks) until disease progression or unacceptable treatment toxicity. […] The Response Assessment in Neuro-Oncology (RANO) was utilized for two-dimensional intracranial tumor assessment.[17]
# The primary objectives of the study were to determine (1) the objective response rate (ORR) in bevacizumab-naïve recurrent GBM patients (Arm 1), (2) progression-free survival rate at 3 months (PFS3) in the bevacizumab-refractory recurrent GBM patients (Arm 2), and (3) ORR in recurrent AG patients (Arm 3). The arms were predefined. Bevacizumab was not continued in bevacizumab-refractory patients.
# The secondary objectives of this study were to determine (1) the ORR in Arm 2; (2) number of patients without progression at 3, 6, and 12 months in Arms 1 and 3; (3) number of patients without progression at 6 and 12 months in Arm 2; (4) median progression-free survival in each arm; (5) median duration of response in each arm; (6) median overall survival (OS) in each arm; (7) safety and tolerability; and (8) plasma pharmacokinetic profile.
# ORR was defined as the proportion of patients with a CR or PR. The assessment was made according to RANO criteria based on the investigator’s assessment.[17] The ORR was the primary endpoint for Arms 1 and 3 and a secondary endpoint for Arm 2. ORR for each arm was calculated, and a 2-sided 95% confidence interval was provided using the exact method based on the binomial distribution. PFS was defined as the time from study enrollment to documented disease progression as determined by the local investigator, clear clinical progression in the absence of a brain MRI determination of progression, or death from any cause, whichever occurred first. PFS was the primary endpoint for Arm 2 and a secondary endpoint for Arms 1 and 3. Patients with a clinical determination of progression underwent an MRI assessment. If a clinical determination of progression for a patient was confirmed by an MRI, the date of the MRI was considered as the progression date for that patient. The data for patients who were still alive and free from disease progression at the time of data cutoff were administratively censored on the last assessment (or, if no post-baseline tumor assessment, at the time of first dose plus 1 day). Data for patients who were lost to follow-up prior to documented disease progression were censored at the last disease assessment date when the patient was known to be disease progression-free. Kaplan–Meier methodology was used to estimate the 3-month PFS rate, and 95% confidence intervals for PFS rate were computed using Greenwood’s formula by arms. In addition, the median PFS was calculated for each arm.
# [7] = % of patients, N = 73, all arms
# [8] = % of patients, N = 73, table cell prints n (%)
substance,measurement,setting,value
paclitaxel trevatide [ANG1005],"neurocognitive function stable or improved (RCI), across the battery of tests","[1]; % of patients, Arm 1 (n = 5)",40–100%
same,CTB composite score: decline in neurocognitive function,"[1]; % of patients, Arm 1, EOT",40%
same,CTB composite score: stable neurocognitive function,"[1]; % of patients, Arm 1, EOT",60%
same,"neurocognitive function stable or improved (RCI), across the battery of tests","[1]; % of patients, Arm 2 (n = 4)",50–75%
same,CTB composite score: decline in neurocognitive function,"[1]; % of patients, Arm 2, EOT",50%
same,CTB composite score: stable neurocognitive function,"[1]; % of patients, Arm 2, EOT",50%
same,"neurocognitive function stable or improved (RCI), across the battery of tests","[1]; % of patients, Arm 3 (n = 13)",69–100%
same,CTB composite score: decline in neurocognitive function,"[1]; % of patients, Arm 3, EOT",25%
same,CTB composite score: improved neurocognitive function,"[1]; % of patients, Arm 3, EOT",8%
same,CTB composite score: stable neurocognitive function,"[1]; % of patients, Arm 3, EOT",67%
same,CTB composite score: improved neurocognitive function,"[1]; Arm 1, EOT",no patients
same,CTB composite score: improved neurocognitive function,"[1]; Arm 2, EOT",no patients
same,most common AEs: alopecia,[2]; [7],31.5% and 32%
same,most common AEs: fatigue,[2]; [7],30.1% and 30%
same,most common AEs: hematologic,[2]; [7],32.9%
same,most commonly reported AEs: neutropenia,[2]; [7],33%
same,patients with a Grade 5 SAE,"[2]; % of patients, N = 73, 3 patients",4.1%
same,patients with a Grade 4 SAE,"[2]; % of patients, N = 73, 9 patients",12.3%
same,patients with a Grade 3 SAE,"[2]; % of patients, N = 73, 19 patients",26.0%
same,related AEs by SOC: gastrointestinal disorders,"[2]; % of patients, N = 73, 34 patients",46.6%
same,related AEs by SOC: skin and subcutaneous tissue disorders,"[2]; % of patients, N = 73, 35 patients",47.9%
same,related AEs by SOC: blood and lymphatic system disorders,"[2]; % of patients, N = 73, 37 patients",50.7%
same,related AEs by SOC: general disorders and administration site reactions,"[2]; % of patients, N = 73, 42 patients",57.5%
same,AEs: skin and subcutaneous disorders,"[2]; % of patients, N = 73, 44 patients",60.3%
same,AEs: gastrointestinal disorders,"[2]; % of patients, N = 73, 45 patients",61.6%
same,AEs: general disorders and administration site reactions,"[2]; % of patients, N = 73, 50 patients",68.5%
same,AEs: nervous system disorders including peripheral neuropathy,"[2]; % of patients, N = 73, 57 patients",78.1%
same,SAEs related to ANG1005: patients reporting at least one related SAE,[2]; [8],28.8%
same,SAEs: patients reporting at least one event,[2]; [8],45.2%
same,treatment discontinued due to AEs,"[2]; % of subjects, N = 73, 7 subjects",9.6%
same,number of AEs that led to death,[2]; Arm 3 (hydrocephalus),one
same,patients who experienced at least one AE,"[2]; N = 73, all arms",All patients
same,number of AEs that led to death,"[2]; all arms, N = 73, only septic shock considered potentially related to ANG1005",3
same,"overall PR, non-CNS peripheral metastases response",[3]; 4/16 patients,25%
same,"overall partial response (PR), CNS response",[3]; 4/18 patients,22%
same,"stable disease (SD), CNS response",[3]; 10/18 patients,56%
same,transport across the BBB and tumor penetration,[4],tumor penetration at therapeutic concentrations
same,median OS,"[5]; patients with high SSR3 expression, 95% CI 14.59, NA, P = .2 vs low",18 months
same,median OS,"[5]; patients with low SSR3 expression, 95% CI 5.41, NA",9 months
same,PFS rate,"[6]; 3 months, Arm 1, 95% CI: 12.2, 56.4",33.3%
same,PFS rate,"[6]; 3 months, Arm 3, 95% CI: 18.9, 53.0",35.7%
same,median duration of response,"[6]; 3 responders (2 in Arm 1, 1 in Arm 3), 95% CI: 2.1, NA",13.4 months
same,PFS rate,"[6]; 6 months, Arm 1, 95% CI: 8.3, 49.6",26.7%
same,PFS rate,"[6]; 6 months, Arm 3, 95% CI: 18.9, 53.0",35.7%
same,PFS rate,"[6]; 12 months, Arm 1, 95% CI: 2.2, 34.6",13.3%
same,PFS rate,"[6]; 12 months, Arm 3, 95% CI: 11.8, 44.4",26.8%
same,clinical benefit rate (SD or better),"[6]; Arm 1, mITT",46.6%
same,progressive disease,"[6]; Arm 1, mITT, 8 subjects",53.3%
same,median OS,"[6]; Arm 1, mITT, 95% CI: 3.4, 14.6",13.4 months
same,median OS,"[6]; Arm 1, safety population, 95% CI: 3.06, 13.67",6.74 months
same,median duration of response,"[6]; Arm 1, 95% CI: 2.1, 13.4",7.75 months
same,duration (of response) rate,"[6]; Arm 1, 95% CI: 0.6, 91.0",50.0%
same,responders (CR or PR),"[6]; Arm 2 (bevacizumab-refractory GBM), mITT, secondary endpoint",none
same,PFS rates,"[6]; Arm 2, at each time point (3, 6, 12 months), PFS3 is the primary endpoint",0
same,clinical benefit rate (SD or better),"[6]; Arm 2, mITT",22.2%
same,subjects who progressed or died,"[6]; Arm 2, mITT",All subjects
same,progressive disease,"[6]; Arm 2, mITT, 7 subjects",77.8%
same,median OS,"[6]; Arm 2, mITT, 95% CI: 1.9, 9.7",5.8 months
same,median OS,"[6]; Arm 2, safety population, 95% CI: 1.94, 6.67",3.02 months
same,median duration of response,[6]; Arm 3,not reached
same,clinical benefit rate (SD or better),"[6]; Arm 3, mITT",53.6%
same,progressive disease,"[6]; Arm 3, mITT, 13 subjects",46.4%
same,median OS,"[6]; Arm 3, mITT, 95% CI: 10.7, 35.3",18.2 months
same,median OS,"[6]; Arm 3, safety population, 95% CI: 8.67, 21.95",16.03 months
same,duration (of response) rate,"[6]; Arm 3, 95% CI: 100,100",100%
same,overall median PFS,"[6]; across all 3 arms, mITT, investigator-assessed, 95% CI: 1.4, 2.1",1.4 months
same,"overall ORR (CR or PR, RANO, investigator)","[6]; mITT n = 52, all arms, 3 subjects, 95% CI: 1.2, 15.9",5.8%
same,subjects who progressed or died,"[6]; mITT n = 52, 47 subjects",90.4%
same,overall median OS,"[6]; mITT population n = 52, 95% CI: 7.03, 14.78",12.94 months
same,progressive disease,"[6]; overall, mITT n = 52, 28 subjects",53.8%
same,duration (of response) rate,"[6]; overall, 95% CI: 5.4, 94.5",66.7%
same,overall median OS,"[6]; safety population n = 73, 95% CI: 6.34, 12.94",8.67 months
